Data: patent US3949090A, “Methods and compositions for improving feed efficiency in ruminants using dithiooxamide” (SmithKline Corporation, priority 1974, dated 1976)
Like-named read-outs stand apart in the source and are kept apart here.

Key:
[1] = tested on: volatile fatty acid production (strained rumen fluid); experiment: In vitro volatile fatty acid production; format: cell-based
Experimental: (§1) The in vitro fermentation system contained 75 ml. strained rumen fluid, 200 mg, alfalfa hay, 800 mg. of a crude protein grain mixture, 0.8 to 1.6 mM of each of 10 essential amino acids (threonine, valine, methionine, isoleucine, leucine, phelylalanine, tryptophan, lysine and arginine), and 0 to 50 ppm dithiooxamide. Flasks were incubated for 4 hours with effects upon amino acid deamination assessed as described for the previous system. Using standard chromatographic techniques, effects upon methanogenesis and upon the pattern of volatile fatty acid production were determined.
(§2) ^1 In vitro fermentation system contained 75 ml. strained rumen fluid
(§3) 200 mg. alfalfa hay, 800 mg. grain mixture (16% crude protein) and 1.6 mM
(§4) of each of ten essential amino acids. Flasks were incubated for four
(§5) 200 mg. alfalfa hay, 800 mg. grain mixture (16% crude protein) and 0.8 mM

[2] = tested on: rumen microbial deamination; experiment: In vivo effects upon amino acid deamination in rumen fistulated cattle; conditions: for Quantity of amino acids in the rumen: per rumen
Experimental: Rumen fistulated cattle were fed a pelleted 60% concentrate diet. To conduct the test, animals received ruminal doses of a mixture of free amino acids to provide 338 mMoles of total free amino acids (threonine 4.5 g., methionine 6.0 g., isoleucine 5.0 g., leucine 5.0 g., phenylalanine 6.5 g., lysine 7.5 g., histidine 8.5 g.), 50 g. of a soluble rumen marker, polyethylene glycol (PEG) and 0 to 4 g. dithiooxamide. Total amino acid concentration was determined by the procedure of Borchers [Anal. Chem., 31 (7): 1179]. Activity was assessed as changes, with respect to time, of the quantity of total free amino acids in the rumen. Inhibition of rumen microbial deamination results in a greater quantity of free amino acids in the rumen.
^1 Polyethylene glycol was used as a marker to estimate rumen volume
and correct for changes in amino acid concentration due to changes in
rumen volume during the six hour experiment.
^2 mMoles of amino acid per rumen.

[3] = tested on: gas production (strained rumen fluid); experiment: In vitro gas production; format: cell-based; conditions: Table III, control 65
Experimental: as §1, §2, §5, §4

animals = experiment: Toxicity statement (animals); conditions: when used as described
methanogenesis = experiment: In vivo effects upon methanogenesis in cattle; conditions: for Methane Inhibition: 360 kg cattle, at least 7 days
Text: Cattle were fed 5 to 7 kg./day of a 70% concentrate ration which was medicated to supply 0 to 2 g. of dithiooxamide per animal daily. After feeding medicated rations for at least 7 days, gas samples were obtained by rumen puncture for chromatographic assay of methane.
^1 360 Kg. Cattle fed either 5, 6 or 7 kg./day.

[4] = tested on: methanogenesis (strained rumen fluid); experiment: In vitro effects upon methanogenesis; format: cell-based
Experimental: as §1, §2, §3, §4, §5

[5] = tested on: Microbial Deaminase (strained rumen fluid); experiment: In vitro effects upon amino acid deamination (rumen fluid, starch, urea; 5 hours); format: cell-based
Experimental: The in vitro fermentation system contained 50 ml. strained rumen fluid, 8 mM urea, 1 g. starch, 1.8 mM of each of 10 essential amino acids (threonine, valine, methionine, isoleucine, leucine, phenylalanine, tryptophan, lysine and arginine) and 0 to 100 ppm dithiooxamide. Flasks were incubated under a CO2 atmosphere for 5 hours with total amino acids assayed prior to and at the end of the fermentation by the method of Borchers [Anal. Chem., 31, (7):1179]. Percent apparent inhibition of deamination in treated flasks was calculated relative to control flasks without added dithiooxamide. Apparent inhibition of deamination in excess of 100% may be observed because of the liberation of amino acids from proteinaceous materials contained in rumen fluid.
Inhibition of deamination (%) =
Control deamination (%) - Treated deamination (%)
Control deamination (%)
^1 In vitro fermentation system contained 50 ml. strained rumen fluid
1 g. starch, 8 mM urea and 1.8 mM of each of ten essential amino acids.
Flasks were incubated under a CO2 atmosphere for five hours.

With `NC(=S)C(N)=S` [Dithiooxamide, dithiooxamide] the “pattern of volatile fatty acids (in words)” value ([1]; Table II) was “increased molar percentages of propionate and butyrate at the expense of acetate”, the “volatile fatty acid carbon (in words)” value ([1]; Table II) was “slight decrease in volatile fatty acid carbon” and the “Volatile Fatty Acids (molar distribution, %): Propionate” value ([1]; Table II, 5 ppm dithiooxamide, 4 h, control 9) was 10%. The “Volatile Fatty Acids (molar distribution, %): Butyrate” value ([1]; Table II, 5 ppm dithiooxamide, 4 h, control 22) was 24%, the “Volatile Fatty Acids (molar distribution, %): Acetate” value ([1]; Table II, 5 ppm dithiooxamide, 4 h, control 69) was 66% and the “Volatile Fatty Acid Carbon” value ([1]; Table II, 5 ppm dithiooxamide, 4 h, control 128) was 127 μ moles/ml. For the same molecule, the “Volatile Fatty Acids (molar distribution, %): Propionate” value ([1]; Table II, 10 ppm dithiooxamide, 4 h, control 9) was 15%, the “Volatile Fatty Acids (molar distribution, %): Butyrate” value ([1]; Table II, 10 ppm dithiooxamide, 4 h, control 22) was 36% and the “Volatile Fatty Acids (molar distribution, %): Acetate” value ([1]; Table II, 10 ppm dithiooxamide, 4 h, control 69) was 49%. The “Volatile Fatty Acid Carbon” value ([1]; Table II, 10 ppm dithiooxamide, 4 h, control 128) was 108 μ moles/ml, the “Volatile Fatty Acids (molar distribution, %): Propionate” value ([1]; Table II, 25 ppm dithiooxamide, 4 h, control 9) was 15% and the “Volatile Fatty Acids (molar distribution, %): Butyrate” value ([1]; Table II, 25 ppm dithiooxamide, 4 h, control 22) was 36%. The “Volatile Fatty Acids (molar distribution, %): Acetate” value ([1]; Table II, 25 ppm dithiooxamide, 4 h, control 69) was 49%, the “Volatile Fatty Acid Carbon” value ([1]; Table II, 25 ppm dithiooxamide, 4 h, control 128) was 108 μ moles/ml and the “Volatile Fatty Acids (molar distribution, %): Propionate” value ([1]; Table II, 50 ppm dithiooxamide, 4 h, control 9) was 15%. For the same molecule, the “Volatile Fatty Acids (molar distribution, %): Butyrate” value ([1]; Table II, 50 ppm dithiooxamide, 4 h, control 22) was 38%, the “Volatile Fatty Acids (molar distribution, %): Acetate” value ([1]; Table II, 50 ppm dithiooxamide, 4 h, control 69) was 47% and the “Volatile Fatty Acid Carbon” value ([1]; Table II, 50 ppm dithiooxamide, 4 h, control 128) was 102 μ moles/ml. For the same molecule, the “patterns of volatile fatty acid production (in words)” value ([1]; Table III) was “Alterations in patterns of volatile fatty acid production were again observed”, the “total volatile fatty acid carbon production (in words)” value ([1]; Table III) was “no effects on total volatile fatty acid carbon production” and the “Volatile Fatty Acids (molar distribution, %): Propionate” value ([1]; Table III, dithiooxamide 25 ppm + cobalt sulfate .013 ppm, control 15) was 20%. The “Volatile Fatty Acids (molar distribution, %): Butyrate” value ([1]; Table III, dithiooxamide 25 ppm + cobalt sulfate .013 ppm, control 21) was 39%, the “Volatile Fatty Acids (molar distribution, %): Acetate” value ([1]; Table III, dithiooxamide 25 ppm + cobalt sulfate .013 ppm, control 64) was 41% and the “Volatile Fatty Acid Carbon” value ([1]; Table III, dithiooxamide 25 ppm + cobalt sulfate .013 ppm, control 125) was 127 μ moles/ml. For the same molecule, the “Volatile Fatty Acids (molar distribution, %): Propionate” value ([1]; Table III, dithiooxamide 25 ppm + cobalt sulfate .066 ppm, control 15) was 20%, the “Volatile Fatty Acids (molar distribution, %): Butyrate” value ([1]; Table III, dithiooxamide 25 ppm + cobalt sulfate .066 ppm, control 21) was 37% and the “Volatile Fatty Acids (molar distribution, %): Acetate” value ([1]; Table III, dithiooxamide 25 ppm + cobalt sulfate .066 ppm, control 64) was 43%. The “Volatile Fatty Acid Carbon” value ([1]; Table III, dithiooxamide 25 ppm + cobalt sulfate .066 ppm, control 125) was 133 μ moles/ml, the “Volatile Fatty Acids (molar distribution, %): Propionate” value ([1]; Table III, dithiooxamide 25 ppm + copper sulfate .067 ppm, control 15) was 21% and the “Volatile Fatty Acids (molar distribution, %): Butyrate” value ([1]; Table III, dithiooxamide 25 ppm + copper sulfate .067 ppm, control 21) was 41%. For the same molecule, the “Volatile Fatty Acids (molar distribution, %): Acetate” value ([1]; Table III, dithiooxamide 25 ppm + copper sulfate .067 ppm, control 64) was 38%, the “Volatile Fatty Acid Carbon” value ([1]; Table III, dithiooxamide 25 ppm + copper sulfate .067 ppm, control 125) was 114 μ moles/ml and the “Volatile Fatty Acids (molar distribution, %): Propionate” value ([1]; Table III, dithiooxamide 25 ppm + copper sulfate .333 ppm, control 15) was 21%. For the same molecule, the “Volatile Fatty Acids (molar distribution, %): Butyrate” value ([1]; Table III, dithiooxamide 25 ppm + copper sulfate .333 ppm, control 21) was 38%, the “Volatile Fatty Acids (molar distribution, %): Acetate” value ([1]; Table III, dithiooxamide 25 ppm + copper sulfate .333 ppm, control 64) was 41% and the “Volatile Fatty Acid Carbon” value ([1]; Table III, dithiooxamide 25 ppm + copper sulfate .333 ppm, control 125) was 132 μ moles/ml. For the same molecule, the “Volatile Fatty Acids (molar distribution, %): Propionate” value ([1]; Table III, dithiooxamide 25 ppm, no added cobalt or copper, control 15) was 21%, the “Volatile Fatty Acids (molar distribution, %): Butyrate” value ([1]; Table III, dithiooxamide 25 ppm, no added cobalt or copper, control 21) was 40% and the “Volatile Fatty Acids (molar distribution, %): Acetate” value ([1]; Table III, dithiooxamide 25 ppm, no added cobalt or copper, control 64) was 39%. For the same molecule, the “Volatile Fatty Acid Carbon” value ([1]; Table III, dithiooxamide 25 ppm, no added cobalt or copper, control 125) was 119 μ moles/ml, the “Quantity of amino acids in the rumen” value ([2]; 0.5 g dithiooxamide ruminal dose, 0 h after dosing, control 338) was 338 mmol and the “Quantity of amino acids in the rumen” value ([2]; 0.5 g dithiooxamide ruminal dose, 3 h after dosing, control 152) was 192 mmol. The “Quantity of amino acids in the rumen” value ([2]; 0.5 g dithiooxamide ruminal dose, 6 h after dosing, control 47) was 78 mmol, the “Quantity of amino acids in the rumen” value ([2]; 1.0 g dithiooxamide ruminal dose, 0 h after dosing, control 338) was 338 mmol and the “Quantity of amino acids in the rumen” value ([2]; 1.0 g dithiooxamide ruminal dose, 3 h after dosing, control 152) was 198 mmol. For the same molecule, the “Quantity of amino acids in the rumen” value ([2]; 1.0 g dithiooxamide ruminal dose, 6 h after dosing, control 47) was 162 mmol, the “Quantity of amino acids in the rumen” value ([2]; 2.0 g dithiooxamide ruminal dose, 0 h after dosing, control 338) was 338 mmol and the “Quantity of amino acids in the rumen” value ([2]; 2.0 g dithiooxamide ruminal dose, 3 h after dosing, control 152) was 209 mmol. For the same molecule, the “Quantity of amino acids in the rumen” value ([2]; 2.0 g dithiooxamide ruminal dose, 6 h after dosing, control 47) was 218 mmol, the “Quantity of amino acids in the rumen” value ([2]; 4.0 g dithiooxamide ruminal dose, 0 h after dosing, control 338) was 338 mmol and the “Quantity of amino acids in the rumen” value ([2]; 4.0 g dithiooxamide ruminal dose, 3 h after dosing, control 152) was 270 mmol. The “Quantity of amino acids in the rumen” value ([2]; 4.0 g dithiooxamide ruminal dose, 6 h after dosing, control 47) was 308 mmol, the “prevention of degradation of free amino acids in the rumen (in words)” value ([2]; Table IV) was “effective agent in preventing his degradation and increasing the size of the pool of amino acids in the rumen” and the “Gas Production” value ([3]; dithiooxamide 25 ppm + cobalt sulfate .013 ppm) was 82 cc. For the same molecule, the “Gas Production” value ([3]; dithiooxamide 25 ppm + cobalt sulfate .066 ppm) was 86 cc, the “Gas Production” value ([3]; dithiooxamide 25 ppm + copper sulfate .067 ppm) was 85 cc and the “Gas Production” value ([3]; dithiooxamide 25 ppm + copper sulfate .333 ppm) was 83 cc. The “Gas Production” value ([3]; dithiooxamide 25 ppm, no added cobalt or copper) was 85 cc, the “toxicity (in words)” value (animals) was “relatively nontoxic” and the “Methane Inhibition” value (methanogenesis; 1.0 g./day dithiooxamide in feed) was 51. The “Methane Inhibition” value (methanogenesis; 2.0 g./day dithiooxamide in feed) was 85, the “Methane Inhibition” value (methanogenesis; .5 g./day dithiooxamide in feed) was 25 and the “antimethanogenic activity (in words)” value (methanogenesis; Table V) was “verified the antimethanogenic activity”. The “methane production (in words)” value ([4]; Table II) was “would suppress methane production”, the inhibition at 5 ppm ([4]; Table II, 5 ppm dithiooxamide, 4 h, read-out: Methane Inhibition (%)) was 12% and the inhibition at 10 ppm ([4]; Table II, 10 ppm dithiooxamide, 4 h, read-out: Methane Inhibition (%)) was 88%. For the same molecule, the inhibition at 25 ppm ([4]; Table II, 25 ppm dithiooxamide, 4 h, read-out: Methane Inhibition (%)) was 96%, the inhibition at 50 ppm ([4]; Table II, 50 ppm dithiooxamide, 4 h, read-out: Methane Inhibition (%)) was 99% and the “Methane Inhibition (%)” value ([4]; Table III, dithiooxamide 25 ppm + cobalt sulfate .066 ppm) was 93%. For the same molecule, the inhibition at 25 ppm ([4]; Table III, dithiooxamide 25 ppm, no added cobalt or copper, read-out: Methane Inhibition (%)) was 92%, the “methane inhibition on adding cobalt and copper (in words)” value ([4]; Table III, varying concentrations of cobalt and copper) was “not affected by adding varying concentrations of cobalt and copper” and the inhibition at 2.5 ppm ([5]; 2.5 ppm dithiooxamide, 5 h, 1 replication, read-out: MDI (%)) was 0%. For the same molecule, the inhibition at 5 ppm ([5]; 5 ppm dithiooxamide, 5 h, 4 replications, read-out: MDI (%)) was 35%, the inhibition at 7.5 ppm ([5]; 7.5 ppm dithiooxamide, 5 h, 1 replication, read-out: MDI (%)) was 71% and the inhibition at 10 ppm ([5]; 10 ppm dithiooxamide, 5 h, 4 replications, read-out: MDI (%)) was 57%. It also gave an inhibition at 25 ppm ([5]; 25 ppm dithiooxamide, 5 h, 4 replications, read-out: MDI (%)) of 62%, an inhibition at 50 ppm ([5]; 50 ppm dithiooxamide, 5 h, 2 replications, read-out: MDI (%)) of 84% and an inhibition at 75 ppm ([5]; 75 ppm dithiooxamide, 5 h, 1 replication, read-out: MDI (%)) of 100%. The inhibition at 100 ppm ([5]; 100 ppm dithiooxamide, 5 h, 1 replication, read-out: MDI (%)) was 117% and the “inhibition of microbial deamination of amino acids (in words)” value ([5]; Table I, 7.5 to 100 ppm) was “effective inhibitor of microbial deamination of amino acids over a wide concentration range”.
